Laboratory results as given in ChEMBL document CHEMBL3886912, “Imidazo[4,5-c]quinolin-2-one compounds and their use in treating Cancer” (2016).

Assays:
[1] = biological target: Serine/threonine-protein kinase ATR (Homo sapiens, UniProt Q13535); assay: Cellular Assay: Assay b) HT29 cells (ECACC #85061109) were seeded into 384 well assay plates (Costar #3712) at a density of 6000 cells/well in 40 μl EMEM medium containing 1% L glutamine and 10% FBS and allowed to adhere overnight. The following morning compound of Formula (I) in 100% DMSO was added to assay plates by acoustic dispensing. After 1 h incubation at 37° C. and 5% CO2, 40 nl of 3 mM 4NQO in 100% DMSO was added to all wells by acoustic dispensing, except minimum control wells which were left untreated with 4NQO to generate a null response control. Plates were returned to the incubator for a further 1 h. Then cells were fixed by adding 20 μl of 3.7% formaldehyde in PBS solution and incubating for 20 mins at r.t. Then 20 μl of 0.1% Triton X100 in PBS was added and incubated for 10 minutes at r.t., to permeabalise cells. Then the plates were washed once with 50 μl/well PBS, using a Biotek EL405 plate washer. Phospho-Chk1 Ser 345 antibody (Cell Signalling Technology #2348) was diluted 150 fold in PBS containing 0.05% polysorbate/Tween and 15 μl was added to each well and incubated over night at r.t. The next morning plates were washed three times with 50 μl/well PBS, using a Biotek EL405 plate washer, and then 20 μl of secondary Ab solution, containing 500 fold diluted Alexa Fluor 488 Goat anti-rabbit IgG (Molecular Probes #A-11008) and 0.002 mg/ml Hoeschst dye (Molecular Probes #H-3570), in PBST, was added. After 2 h incubation at r.t., the plates were washed three times with 50 μl/well PBS, using a Biotek EL405 plate washer, and plates were then sealed with black plate seals until read. Plates were read using an ArrayScan VTI instrument, using an XF53 filter with 10× objective. A two laser set up was used to analyse nuclear staining with Hoeschst (405 nm) and secondary antibody staining of pChk1 (488 nm).; type: cell-based, HT-29
[2] = biological target: Serine-protein kinase ATM (Homo sapiens, UniProt Q13315); assay: Cellular Assay: Assay a) HT29 cells (ECACC #85061109) were seeded into 384 well assay plates (Costar #3712) at a density of 3500 cells/well in 40 μl EMEM medium containing 1% L glutamine and 10% FBS and allowed to adhere overnight. The following morning compounds of Formula (I) in 100% DMSO were added to assay plates by acoustic dispensing. After 1 h incubation at 37° C. and 5% CO2 plates (up to …; type: cell-based, HT-29
Serine-protein kinase ATM, sequence (Q13315 whole entry): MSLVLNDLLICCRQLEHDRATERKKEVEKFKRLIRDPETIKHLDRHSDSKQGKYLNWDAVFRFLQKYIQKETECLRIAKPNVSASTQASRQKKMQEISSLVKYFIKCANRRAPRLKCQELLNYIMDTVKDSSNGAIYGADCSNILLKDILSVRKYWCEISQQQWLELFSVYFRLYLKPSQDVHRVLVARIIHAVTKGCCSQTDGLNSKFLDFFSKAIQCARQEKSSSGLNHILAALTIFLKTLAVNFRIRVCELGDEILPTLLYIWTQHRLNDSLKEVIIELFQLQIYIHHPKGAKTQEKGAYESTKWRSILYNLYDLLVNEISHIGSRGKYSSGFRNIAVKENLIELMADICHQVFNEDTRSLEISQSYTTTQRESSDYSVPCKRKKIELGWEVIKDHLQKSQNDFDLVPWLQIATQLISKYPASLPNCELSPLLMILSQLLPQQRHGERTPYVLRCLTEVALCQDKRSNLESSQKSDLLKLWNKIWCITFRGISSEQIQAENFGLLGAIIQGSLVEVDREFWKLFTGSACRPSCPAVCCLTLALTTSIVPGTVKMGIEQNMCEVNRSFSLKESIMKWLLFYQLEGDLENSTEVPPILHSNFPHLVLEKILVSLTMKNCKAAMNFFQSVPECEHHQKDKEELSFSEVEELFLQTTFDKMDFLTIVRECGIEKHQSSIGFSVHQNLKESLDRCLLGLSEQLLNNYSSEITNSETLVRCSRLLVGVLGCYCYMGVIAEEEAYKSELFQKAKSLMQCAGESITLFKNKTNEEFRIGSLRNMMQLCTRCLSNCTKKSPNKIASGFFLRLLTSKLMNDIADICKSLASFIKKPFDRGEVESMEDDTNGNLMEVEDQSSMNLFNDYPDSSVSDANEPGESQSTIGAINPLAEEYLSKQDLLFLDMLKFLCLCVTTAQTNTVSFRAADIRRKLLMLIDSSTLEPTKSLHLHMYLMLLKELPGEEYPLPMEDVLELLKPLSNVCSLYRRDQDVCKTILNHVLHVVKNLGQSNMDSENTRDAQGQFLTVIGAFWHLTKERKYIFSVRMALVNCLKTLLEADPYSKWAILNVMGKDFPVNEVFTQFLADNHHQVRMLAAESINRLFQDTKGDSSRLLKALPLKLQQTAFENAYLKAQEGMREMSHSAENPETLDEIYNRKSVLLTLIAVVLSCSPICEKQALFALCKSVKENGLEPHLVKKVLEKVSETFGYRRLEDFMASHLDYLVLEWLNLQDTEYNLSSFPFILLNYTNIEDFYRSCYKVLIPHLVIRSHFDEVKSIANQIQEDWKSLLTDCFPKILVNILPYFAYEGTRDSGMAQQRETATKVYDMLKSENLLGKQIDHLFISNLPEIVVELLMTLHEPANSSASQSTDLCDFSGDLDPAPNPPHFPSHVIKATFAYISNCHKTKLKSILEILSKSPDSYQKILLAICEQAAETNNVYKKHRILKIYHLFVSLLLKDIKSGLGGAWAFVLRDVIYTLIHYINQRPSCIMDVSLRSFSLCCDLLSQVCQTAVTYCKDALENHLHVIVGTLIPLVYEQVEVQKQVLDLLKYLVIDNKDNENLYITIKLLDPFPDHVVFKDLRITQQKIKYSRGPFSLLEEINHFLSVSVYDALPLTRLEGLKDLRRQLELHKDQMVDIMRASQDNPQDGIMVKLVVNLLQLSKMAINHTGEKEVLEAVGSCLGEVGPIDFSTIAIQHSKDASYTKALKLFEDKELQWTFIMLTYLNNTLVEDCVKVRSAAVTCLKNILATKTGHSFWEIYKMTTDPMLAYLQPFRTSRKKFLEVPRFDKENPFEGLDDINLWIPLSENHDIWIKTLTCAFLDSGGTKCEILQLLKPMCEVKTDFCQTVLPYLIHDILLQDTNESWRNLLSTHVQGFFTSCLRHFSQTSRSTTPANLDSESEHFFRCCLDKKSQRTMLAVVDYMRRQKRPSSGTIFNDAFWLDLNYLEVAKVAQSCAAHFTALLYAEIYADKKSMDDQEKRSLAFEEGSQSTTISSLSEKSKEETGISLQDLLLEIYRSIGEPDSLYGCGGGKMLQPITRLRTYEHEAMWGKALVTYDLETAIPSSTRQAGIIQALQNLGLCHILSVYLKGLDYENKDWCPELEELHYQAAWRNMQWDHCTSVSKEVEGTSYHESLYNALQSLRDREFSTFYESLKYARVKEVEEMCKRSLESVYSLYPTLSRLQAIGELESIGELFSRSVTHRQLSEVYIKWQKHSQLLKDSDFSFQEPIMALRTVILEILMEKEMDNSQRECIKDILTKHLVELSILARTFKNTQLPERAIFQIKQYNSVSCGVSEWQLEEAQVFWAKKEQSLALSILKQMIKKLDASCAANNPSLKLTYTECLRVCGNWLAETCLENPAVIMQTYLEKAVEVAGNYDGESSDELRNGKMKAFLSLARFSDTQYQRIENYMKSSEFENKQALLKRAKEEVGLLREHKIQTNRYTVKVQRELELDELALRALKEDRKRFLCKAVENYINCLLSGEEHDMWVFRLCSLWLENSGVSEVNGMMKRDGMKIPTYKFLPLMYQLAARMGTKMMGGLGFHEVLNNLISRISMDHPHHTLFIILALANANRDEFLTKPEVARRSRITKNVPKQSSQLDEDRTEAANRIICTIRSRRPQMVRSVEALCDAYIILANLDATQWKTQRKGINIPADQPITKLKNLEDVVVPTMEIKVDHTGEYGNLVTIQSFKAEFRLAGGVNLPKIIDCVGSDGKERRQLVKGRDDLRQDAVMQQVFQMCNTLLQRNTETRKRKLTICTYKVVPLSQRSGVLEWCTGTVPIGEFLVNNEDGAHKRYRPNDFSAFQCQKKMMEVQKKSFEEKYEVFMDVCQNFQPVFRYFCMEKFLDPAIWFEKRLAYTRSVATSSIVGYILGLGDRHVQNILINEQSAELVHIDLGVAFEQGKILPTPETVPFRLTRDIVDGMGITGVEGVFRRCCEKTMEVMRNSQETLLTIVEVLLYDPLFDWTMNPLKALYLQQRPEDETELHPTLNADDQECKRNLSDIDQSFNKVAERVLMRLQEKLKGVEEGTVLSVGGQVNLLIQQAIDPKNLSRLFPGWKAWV

IC50 [1]	IC50 [2]	Compound
> 30000 nM	0.24 nM	CN(C)CCCOc1ccc(-c2ccc3ncc4c(c3c2)n([C@H]2C[C@@H](O)C2)c(=O)n4C)cn1
> 29600 nM	1.14 nM	CN(C)CCCOc1ccc(-c2cc3c(cc2F)ncc2c3n([C@H]3CCCOC3)c(=O)n2C)cn1
> 30000 nM	1 nM	CN(C)CCCOc1ccc(-c2cc3c(cc2F)ncc2c3n([C@@H]3CCCOC3)c(=O)n2C)cn1
> 30000 nM	1.46 nM	CN(C)CCCOc1ccc(-c2ccc3ncc4c(c3c2)n(C2COC2)c(=O)n4C)cn1
